Assay [1] deals with T1, Myt1 kinase (recombinant PMYT-1) (Homo sapiens, UniProt Q99640).
T1 construct: full length PMYT-1 was expressed by baculovirus in insect cells; purchased Invitrogen A30984; host or cells: insect cells (baculovirus)
T1 sequence (Q99640 1-499): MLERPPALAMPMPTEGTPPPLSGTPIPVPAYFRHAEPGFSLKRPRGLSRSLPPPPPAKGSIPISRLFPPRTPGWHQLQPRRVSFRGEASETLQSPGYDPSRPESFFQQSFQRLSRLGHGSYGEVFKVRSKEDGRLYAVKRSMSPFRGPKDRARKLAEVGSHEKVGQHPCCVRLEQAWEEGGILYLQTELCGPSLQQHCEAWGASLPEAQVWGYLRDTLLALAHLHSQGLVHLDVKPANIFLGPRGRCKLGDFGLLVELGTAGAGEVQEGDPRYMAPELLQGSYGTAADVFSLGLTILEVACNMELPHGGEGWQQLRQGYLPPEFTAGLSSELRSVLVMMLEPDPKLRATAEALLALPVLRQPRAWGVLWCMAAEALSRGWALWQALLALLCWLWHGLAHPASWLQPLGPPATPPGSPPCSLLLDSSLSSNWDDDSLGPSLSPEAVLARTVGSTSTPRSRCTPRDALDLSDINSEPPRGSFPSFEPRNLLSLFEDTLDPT
Briefly: Myt1 kinase binding assay (LanthaScreen Eu Kinase Binding Assay). The note with it: 3 nM tracer 178, 2.5 nM PMYT-1, 1 nM Eu-labeled antibody; read-out: Myt1 kinase Binding IC50. The method, boiled down:
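Compound binding to Myt1 kinase was assessed using the LanthaScreen Eu Kinase Binding Assay. This europium-based binding format was applied to quantify how strongly each compound bound to the Myt1 enzyme, and the binding affinity was reported for each compound as an IC50 value.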
Background: Time-resolved FRET reads energy transfer from a long-lived donor to a nearby acceptor.

Assay [2] has as its target T2, Wee1A kinase (CDK1 Tyr15 phosphorylation in ACHN renal cell carcinoma cells) (Homo sapiens, UniProt P30291).
T2 construct: pCDK1 Tyr15 immunofluorescence read-out
Description: High-content imaging of pCdk1 Y15, Wee1A kinase target engagement in ACHN cells. Type of assay: cell-based. The following applies: 4 h treatment, nuclear positivity for pCdk1 Y15 vs DMSO control, read-out: CDK1 Tyr15 Phosphorylation EC50. The method, boiled down:
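EC50 values come from the per-well fraction of cells with nuclear pCdk1 Y15 staining, normalised to DMSO control, by automated immunofluorescence imaging. Cells were ACHN renal carcinoma, treated 4 h with compound at 7–5,000 nM or 0.3–200 nM.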

In assay [3] the target is T3, recombinant human Wee1A kinase (Homo sapiens, UniProt P30291).
T3 construct: full length Wee1 kinase was expressed by baculovirus in insect cells; purchased Invitrogen PV3817; host or cells: insect cells (baculovirus)
Description: Wee1A kinase binding assay (LanthaScreen Eu time-resolved FRET). The note with it: 30 nM tracer 178, 5 nM Wee1A kinase, 2 nM Eu-labeled antibody; 60 minutes at room temperature; read-out: Wee1A kinase Binding IC50. The essentials: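 Full-length, baculovirus-expressed GST-tagged Wee1A (5 nM) was mixed with 2 nM Eu-anti-GST antibody, 30 nM kinase tracer 178 and compound (1% DMSO). Buffer was 50 mM HEPES pH 7.5, 10 mM MgCl2, 1 mM EGTA, 0.01% Brij-35, incubated 60 min at room temperature. TR-FRET 665/615 nm emission ratios from duplicates were curve-fitted.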

T2 sequence (P30291 whole entry): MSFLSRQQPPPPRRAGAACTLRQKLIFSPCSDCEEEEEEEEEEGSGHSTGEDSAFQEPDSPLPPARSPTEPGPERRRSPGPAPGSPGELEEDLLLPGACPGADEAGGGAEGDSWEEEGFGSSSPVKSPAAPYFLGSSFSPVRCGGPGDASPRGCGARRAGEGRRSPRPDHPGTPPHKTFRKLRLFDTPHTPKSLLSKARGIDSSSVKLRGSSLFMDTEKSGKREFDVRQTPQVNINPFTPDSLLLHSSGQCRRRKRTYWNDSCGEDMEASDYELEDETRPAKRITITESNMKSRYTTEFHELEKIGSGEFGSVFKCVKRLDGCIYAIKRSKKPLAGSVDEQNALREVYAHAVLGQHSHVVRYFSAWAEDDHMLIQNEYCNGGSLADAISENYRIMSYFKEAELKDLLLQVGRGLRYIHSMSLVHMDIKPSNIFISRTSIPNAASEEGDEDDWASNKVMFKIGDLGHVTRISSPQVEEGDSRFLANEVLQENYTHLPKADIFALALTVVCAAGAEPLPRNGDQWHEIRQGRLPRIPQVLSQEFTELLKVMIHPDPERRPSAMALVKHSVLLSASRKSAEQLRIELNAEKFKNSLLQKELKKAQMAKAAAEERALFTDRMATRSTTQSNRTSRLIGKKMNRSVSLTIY
T3 sequence (P30291 whole entry): as above

The term IC50 denotes the concentration that gives 50% inhibition. As usually defined, the EC50 is the concentration that produces a half-maximal response. Turning to `CCn1c(=O)c2cnc(Nc3ccc(-c4ccccc4)cc3)nc2n1-c1cccc(OC2CCNCC2)n1` [Compound 272, 6-(4-biphenylylamino)-2-ethyl-1-[6-(4-piperidyloxy)-2-pyridyl]-1,2-dihydro-3H-1,2,5,7-tetraazainden-3-one], the IC50 in assay [1] was less than 20 nM; in assay [3], less than 10 nM. Moreover, the EC50 in assay [2] fell in the range of 100 to 500 nM.

For `C=CCn1c(=O)c2cnc(Nc3ccc4nn(C)cc4c3)nc2n1-c1cccc(OC2CCNCC2)n1` [Compound 274, 2-allyl-6-((2-methyl-2H-indazol-5-yl)amino)-1-(6-(piperidin-4-yloxy)pyridin-2-yl)-1,2-dihydro-3H-pyrazolo[3,4-d]pyrimidin-3-one], the IC50 was less than 20 nM in assay [1] and less than 10 nM in assay [3]. Also, in assay [2], the EC50 lay within 100 to 500 nM.

As for `C=CCn1c(=O)c2cnc(Nc3ccc4[nH]nc(Cl)c4c3)nc2n1-c1cccc(OC2CCNCC2)n1` [Compound 275, 2-allyl-6-((3-chloro-1H-indazol-5-yl)amino)-1-(6-(piperidin-4-yloxy)pyridin-2-yl)-1,2-dihydro-3H-pyrazolo[3,4-d]pyrimidin-3-one], the IC50 in assay [1] is 20 to 100 nM; in assay [3], less than 10 nM. Further, in assay [2], the EC50 is greater than 1000 nM.

As to `C=CCn1c(=O)c2cnc(Nc3ccc4nn(CC)cc4c3)nc2n1-c1cccc(OC2CCNCC2)n1` [Compound 276], the values for the IC50 in assay [1] and in assay [3] were 20 to 100 nM and less than 10 nM, respectively. In assay [2], the half-maximal effective concentration (EC50) is less than 100 nM.

`CCn1c(=O)c2cnc(Nc3ccc(-c4ccccc4)cc3)nc2n1-c1cccc(OC2CCN(C)CC2)n1` [Compound 284, 6-(4-biphenylylamino)-2-ethyl-1-[6-(1-methyl-4-piperidyloxy)-2-pyridyl]-1,2-dihydro-3H-1,2,5,7-tetraazainden-3-one]: the IC50 in assay [1] is less than 20 nM; in assay [3], less than 10 nM. Further, the EC50 in assay [2] was 100 to 500 nM.

Consider `CCn1c(=O)c2cnc(Nc3ccc4c(cnn4C)c3)nc2n1-c1cccc(NC2CCNCC2)n1` [Compound 285, 2-ethyl-6-[(1-methyl-1H-indazol-5-yl)amino]-1-{6-[(piperidin-4-yl)amino]pyridin-2-yl}-1H,2H,3H-pyrazolo[3,4-d]pyrimidin-3-one], for which the IC50 was 100 to 500 nM in assay [1] and less than 10 nM in assay [3]. Further, the EC50 in assay [2] was greater than 1000 nM.

Consider `CCn1c(=O)c2cnc(Nc3ccc(F)cc3)nc2n1-c1cccc(OC2CCNCC2)n1` [Compound 297, 2-ethyl-6-(p-fluorophenylamino)-1-[6-(4-piperidyloxy)-2-pyridyl]-1,2-dihydro-3H-1,2,5,7-tetraazainden-3-one], for which the IC50 in assay [1] is 100 to 500 nM; in assay [3] it was less than 10 nM. The EC50 in assay [2] lay within 100 to 500 nM.

On to `C=CCn1c(=O)c2cnc(Nc3ccc(C#N)cc3)nc2n1-c1cccc(OC2CCNCC2)n1` [Compound 300, p-{2-allyl-3-oxo-1-[6-(4-piperidyloxy)-2-pyridyl]-1,2-dihydro-3H-1,2,5,7-tetraazainden-6-ylamino}benzonitrile], for which the IC50 was 20 to 100 nM in assay [1] and less than 10 nM in assay [3]. For the same compound, in assay [2], the EC50 is 100 to 500 nM.

For the compound `CCn1c(=O)c2cnc(Nc3ccc(C#N)cc3)nc2n1-c1cccc(OC2CCNCC2)n1` [Compound 302, p-{2-ethyl-3-oxo-1-[6-(4-piperidyloxy)-2-pyridyl]-1,2-dihydro-3H-1,2,5,7-tetraazainden-6-ylamino}benzonitrile], the IC50 in assay [1] is 20 to 100 nM; in assay [3] it was less than 10 nM. Further, in assay [2], the EC50 lay in the range of 500 to 1000 nM.

In the case of `C=CCn1c(=O)c2cnc(Nc3ccc(F)cc3)nc2n1-c1cccc(OC2CCCNCC2)n1` (stereo not drawn) [Compound 315, 2-allyl-1-[6-(4-azepanyloxy)-2-pyridyl]-6-(p-fluorophenylamino)-1,2-dihydro-3H-1,2,5,7-tetraazainden-3-one], the IC50 is 20 to 100 nM in assay [1] and less than 10 nM in assay [3]. Also, the EC50 in assay [2] was 500 to 1000 nM.

With `C=CCn1c(=O)c2cnc(Nc3cncc(Cl)c3)nc2n1-c1cccc(OC2CCN(C)CC2)n1` [Compound 323, 2-allyl-6-(5-chloro-3-pyridylamino)-1-[6-(1-methyl-4-piperidyloxy)-2-pyridyl]-1,2-dihydro-3H-1,2,5,7-tetraazainden-3-one], the IC50 in assay [1] was 20 to 100 nM; in assay [3], less than 10 nM. The EC50 in assay [2] was 100 to 500 nM.

As to `C=CCn1c(=O)c2cnc(Nc3ccc4nccn4c3)nc2n1-c1cccc(OC2CCNCC2)n1` [Compound 324, 6-(1,3a-diaza-5-indenylamino)-2-allyl-1-[6-(4-piperidyloxy)-2-pyridyl]-1,2-dihydro-3H-1,2,5,7-tetraazainden-3-one], the values for the IC50 in assay [1] and in assay [3] were 20 to 100 nM and less than 10 nM, respectively. The EC50 in assay [2] is greater than 1000 nM.

On to `C=CCn1c(=O)c2cnc(Nc3cncc(F)c3)nc2n1-c1cccc(OC2CCN(C)CC2)n1` [Compound 327, 2-allyl-6-(5-fluoro-3-pyridylamino)-1-[6-(1-methyl-4-piperidyloxy)-2-pyridyl]-1,2-dihydro-3H-1,2,5,7-tetraazainden-3-one], for which the IC50 in assay [1] is 20 to 100 nM; in assay [3], less than 10 nM. In addition, in assay [2], the EC50 was in the range of 100 to 500 nM.

`C=CCn1c(=O)c2cnc(Nc3ccc4nccn4c3)nc2n1-c1cccc(OC2CCN(C)CC2)n1` [Compound 328, 6-(1,3a-diaza-5-indenylamino)-2-allyl-1-[6-(1-methyl-4-piperidyloxy)-2-pyridyl]-1,2-dihydro-3H-1,2,5,7-tetraazainden-3-one]: the IC50 in assay [1] is 20 to 100 nM; in assay [3], less than 10 nM. The EC50 in assay [2] was 100 to 500 nM.

For the compound `C=CCn1c(=O)c2cnc(Nc3cncc(F)c3)nc2n1-c1cccc(OC2CCNCC2)n1` [Compound 329, 2-allyl-6-(5-fluoro-3-pyridylamino)-1-[6-(4-piperidyloxy)-2-pyridyl]-1,2-dihydro-3H-1,2,5,7-tetraazainden-3-one], the IC50 is 20 to 100 nM in assay [1] and less than 10 nM in assay [3]. The EC50 in assay [2] was in the range of 500 to 1000 nM.

As to `C=CCn1c(=O)c2cnc(Nc3cncc(C#N)c3)nc2n1-c1cccc(OC2CCN(C)CC2)n1` [Compound 330, 5-[(1-{6-[(1-methylpiperidin-4-yl)oxy]pyridin-2-yl}-3-oxo-2-(prop-2-en-1-yl)-1H,2H,3H-pyrazolo[3,4-d]pyrimidin-6-yl)amino]pyridine-3-carbonitrile], the IC50 in assay [1] is 100 to 500 nM; in assay [3], less than 10 nM. Further, the EC50 in assay [2] lay within 100 to 500 nM.

Turning to `C=CCn1c(=O)c2cnc(Nc3ccc4c(cnn4C)c3)nc2n1-c1cccc(OC2CCNC(C)(C)C2)n1` (stereo not drawn) [Compound 337, 2-allyl-1-(6-((2,2-dimethylpiperidin-4-yl)oxy)pyridin-2-yl)-6-((1-methyl-1H-indazol-5-yl)amino)-1,2-dihydro-3H-pyrazolo[3,4-d]pyrimidin-3-one], the IC50 in assay [1] is 100 to 500 nM; in assay [3] it was less than 10 nM. For the same compound, the EC50 in assay [2] is less than 100 nM.

Consider `CCn1c(=O)c2cnc(Nc3cccc(-c4ccccc4)c3)nc2n1-c1cccc(OC2CCNCC2)n1` [Compound 338, 6-(3-biphenylylamino)-2-ethyl-1-[6-(4-piperidyloxy)-2-pyridyl]-1,2-dihydro-3H-1,2,5,7-tetraazainden-3-one], for which the IC50 in assay [1] was 20 to 100 nM; in assay [3], less than 10 nM. For the same compound, the EC50 in assay [2] is greater than 1000 nM.

`CCn1c(=O)c2cnc(Nc3cccc(-c4ccccc4)c3)nc2n1-c1cccc(OC2CCN(C)CC2)n1` [Compound 339, 6-(3-biphenylylamino)-2-ethyl-1-[6-(1-methyl-4-piperidyloxy)-2-pyridyl]-1,2-dihydro-3H-1,2,5,7-tetraazainden-3-one]: the results for the IC50 in assay [1] and in assay [3] were 20 to 100 nM and less than 10 nM, respectively. Also, the EC50 in assay [2] is greater than 1000 nM.

With `CCn1c(=O)c2cnc(Nc3cccc(-c4cnn(C)c4)c3)nc2n1-c1cccc(OC2CCNCC2)n1` [Compound 340, 2-ethyl-6-[m-(1-methyl-4-pyrazolyl)phenylamino]-1-[6-(4-piperidyloxy)-2-pyridyl]-1,2-dihydro-3H-1,2,5,7-tetraazainden-3-one], the IC50 in assay [1] was 100 to 500 nM; in assay [3], less than 10 nM. Also, the EC50 in assay [2] was greater than 1000 nM.

Source of the values: patent publication US20260364080A1, “PYRAZOLO-PYRIMIDINONE COMPOUNDS FOR USE IN METHODS OF INHIBITING WEE1 A KINASE” (Acrivon Therapeutics, Inc., priority 2023, published 2026).
